From patent US8821927B2, “Pharmaceutical composition” (SmithKline Beecham (Cork) Limited, priority 2005, dated 2014)

Assay: solubility in aqueous media
Type: physicochemical
Details: over the physiologically relevant pH range
Source text: Of particular interest is N-{3-Chloro-4-[(3-fluorobenzyl)oxy]phenyl}-6-[5-({[2-(methanesulphonyl)ethyl]amino}methyl)-2-furyl]-4-quinazolinamine ditosylate monohydrate.

Compound: CS(=O)(=O)CCNCc1ccc(-c2ccc3ncnc(Nc4ccc(OCc5cccc(F)c5)c(Cl)c4)c3c2)o1 [GW572016, N-{3-Chloro-4-[(3-fluorobenzyl)oxy]phenyl}-6-[5-({[2-(methanesulphonyl)ethyl]amino}methyl)-2-furyl]-4-quinazolinamine]
- solubility in aqueous media: poorly soluble
